Reference: patent US10710980B2, “Aminopyridine derivatives and their use as selective ALK-2 inhibitors” (priority 2016, dated 2020)
pIC50: −log10 of the molar value.

Key:
ALK3 (aa198-525) = ALK3 (aa198-525) (Homo sapiens (Human), UniProt P36894); assay: ADPGlo biochemical autophosphorylation assay, ALK3; conditions: 15 μm ATP, 60 min at 32° C.
[1] = system: BMP response element (BRE) luciferase reporter in HuH7 cells, BMP6 stimulated; assay: BMP signaling reporter gene assay; assay type: cell-based; conditions: Homo sapiens, Huh-7; HuH7 BRE-luciferase, BMP6 100 ng/ml, 5 hours; read-out: MSD BMP RGA IC50
[2] = target: T1, wild-type ALK2 (aa172-499) (Homo sapiens (Human), UniProt Q04771); assay: ADPGlo biochemical autophosphorylation assay, ALK2; conditions: 15 μm ATP, 60 min at 32° C.
T1 sequence (Q04771 172-499): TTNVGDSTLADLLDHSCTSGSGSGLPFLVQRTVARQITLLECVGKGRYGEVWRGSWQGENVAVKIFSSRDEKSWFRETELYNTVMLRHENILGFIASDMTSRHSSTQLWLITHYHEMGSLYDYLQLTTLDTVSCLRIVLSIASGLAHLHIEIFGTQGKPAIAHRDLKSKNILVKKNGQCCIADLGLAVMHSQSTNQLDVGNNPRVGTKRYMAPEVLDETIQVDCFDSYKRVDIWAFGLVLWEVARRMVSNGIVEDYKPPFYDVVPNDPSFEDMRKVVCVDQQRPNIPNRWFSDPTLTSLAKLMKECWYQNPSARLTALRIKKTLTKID

[3] = target: T1, wild-type ALK2 (aa172-499); assay: Caliper biochemical peptide phosphorylation assay, ALK2; conditions: 15 μm ATP, 60 min at 30° C.; read-out: ALK2 EPK (IC50)
ALK5 (aa162-503) = ALK5 (aa162-503) (Homo sapiens (Human), UniProt P36897); assay: Caliper biochemical peptide phosphorylation assay, ALK5; conditions: 15 μm ATP, 60 min at 30° C.; read-out: ALK5 EPK (IC50)
Sequence of ALK5 (aa162-503) (P36897 162-503): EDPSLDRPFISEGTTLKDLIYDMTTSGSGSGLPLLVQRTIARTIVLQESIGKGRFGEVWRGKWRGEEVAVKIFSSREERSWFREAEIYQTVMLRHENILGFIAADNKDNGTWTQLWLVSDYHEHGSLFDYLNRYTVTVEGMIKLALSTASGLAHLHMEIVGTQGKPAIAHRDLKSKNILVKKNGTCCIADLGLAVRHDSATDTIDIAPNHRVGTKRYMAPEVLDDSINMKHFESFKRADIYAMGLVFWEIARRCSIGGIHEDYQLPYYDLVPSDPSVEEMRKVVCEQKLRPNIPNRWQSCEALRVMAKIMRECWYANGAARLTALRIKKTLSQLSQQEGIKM

ALK1 (aa166-493) = ALK1 (aa166-493) (Homo sapiens (Human), UniProt P37023); assay: Caliper biochemical peptide phosphorylation assay, ALK1; conditions: 15 μm ATP, 60 min at 30° C.; read-out: ALK1 EPK (IC50)
Sequence of ALK1 (aa166-493) (P37023 166-493): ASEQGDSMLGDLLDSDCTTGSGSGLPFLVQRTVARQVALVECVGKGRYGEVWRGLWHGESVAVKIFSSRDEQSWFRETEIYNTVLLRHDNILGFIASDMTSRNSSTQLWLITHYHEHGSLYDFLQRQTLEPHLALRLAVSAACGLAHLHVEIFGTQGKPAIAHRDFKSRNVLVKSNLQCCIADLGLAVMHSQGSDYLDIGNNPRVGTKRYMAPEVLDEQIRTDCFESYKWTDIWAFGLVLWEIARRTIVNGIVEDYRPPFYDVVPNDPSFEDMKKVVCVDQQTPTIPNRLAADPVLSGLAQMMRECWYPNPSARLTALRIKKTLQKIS

ALK6 (aa168-495) = ALK6 (aa168-495) (Homo sapiens (Human), UniProt O00238); assay: Caliper biochemical peptide phosphorylation assay, ALK6; conditions: 15 μm ATP, 60 min at 30° C.; read-out: ALK6 EPK (IC50)
Sequence of ALK6 (aa168-495) (O00238 168-495): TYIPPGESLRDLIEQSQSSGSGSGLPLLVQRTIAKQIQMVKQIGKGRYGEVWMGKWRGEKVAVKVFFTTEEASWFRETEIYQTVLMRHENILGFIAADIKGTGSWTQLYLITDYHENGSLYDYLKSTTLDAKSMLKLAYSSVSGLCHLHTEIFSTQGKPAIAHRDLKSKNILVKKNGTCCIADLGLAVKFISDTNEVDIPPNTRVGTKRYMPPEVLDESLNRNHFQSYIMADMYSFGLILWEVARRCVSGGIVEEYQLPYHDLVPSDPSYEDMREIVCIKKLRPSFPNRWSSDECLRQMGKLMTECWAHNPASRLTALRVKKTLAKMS

Sequence of ALK3 (aa198-525) (P36894 198-525): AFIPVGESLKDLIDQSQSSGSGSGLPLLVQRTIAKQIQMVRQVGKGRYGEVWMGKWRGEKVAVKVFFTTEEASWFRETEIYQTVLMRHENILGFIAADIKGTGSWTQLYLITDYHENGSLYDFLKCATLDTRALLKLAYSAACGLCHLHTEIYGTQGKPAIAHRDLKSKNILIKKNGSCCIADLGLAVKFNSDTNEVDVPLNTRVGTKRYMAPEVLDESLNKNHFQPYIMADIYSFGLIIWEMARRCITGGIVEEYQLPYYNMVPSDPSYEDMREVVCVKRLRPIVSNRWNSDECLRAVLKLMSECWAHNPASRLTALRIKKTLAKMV

Compound | pIC50 (ALK3 (aa198-525)) | pIC50 [1] | pIC50 [2] | pIC50 [3] | pIC50 (ALK5 (aa162-503)) | pIC50 (ALK1 (aa166-493)) | pIC50 (ALK6 (aa168-495))
CN1CCN(C(=O)c2ccc(-c3cnc(N)c(C(=O)NC4CCCCC4)c3)cc2)CC1 [Example 45, 2-amino-N-cyclohexyl-5-(4-(4-methylpiperazine-1-carbonyl)phenyl)nicotinamide] | 5.80 | 6.44 | 7.70 | 7.60 | 5.57 | 6.12 | 5.32
Nc1ncc(-c2ccc([C@@]34C[C@@H]3CN(C3CCS(=O)(=O)CC3)C4)cc2)cc1C(=O)N[C@H]1CC[C@H](O)CC1 [Example 44, 2-amino-5-(4-((1R,5S)-3-(1,1-dioxidotetrahydro-2H-thiopyran-4-yl)-3-azabicyclo[3.1.0]hexan-1-yl)phenyl)-N-((1r,4R)-4-hydroxycyclohexyl)nicotinamide] | 6.37 | 6.44 | 7.74 | 7.62 | 5.49 | 6.77 | 5.70
N#CCCN1C[C@@H]2C[C@]2(c2ccc(-c3cnc(N)c(C(=O)N[C@H]4CC[C@H](O)CC4)c3)cc2)C1 [Example 51, 2-amino-5-(4-((1S,5R)-3-(2-cyanoethyl)-3-azabicyclo[3.1.0]hexan-1-yl)phenyl)-N-((1r,4S)-4-hydroxycyclohexyl)nicotinamide] | 6.11 | 7.19 | 7.80 | 7.51 | 5.85 | 6.92 | 5.77
Nc1ncc(-c2ccc([C@@]34C[C@@H]3CN(C3CCC(F)(F)CC3)C4)cc2)cc1C(=O)NC12CCC(O)(CC1)CC2 [Example 80, 2-amino-5-(4-((1R,5S)-3-(4,4-difluorocyclohexyl)-3-azabicyclo[3.1.0]hexan-1-yl)phenyl)-N-(4-hydroxybicyclo[2.2.2]octan-1-yl)nicotinamide] | 5.74 | 7.24 | 7.24 | 7.06 | 5.18 | 6.17 | 5.34
C[C@H](c1ccc(-c2cnc(N)c(C(=O)N[C@H]3CC[C@H](O)CC3)c2)cc1)N1CC2(COC2)C1 [Example 3, 5-(4-((R)-1-(2-oxa-6-azaspiro[3.3]heptan-6-yl)ethyl)phenyl)-2-amino-N-((1r,4R)-4-hydroxycyclohexyl)nicotinamide] | 5.98 | 7.21 | 7.92 | 7.96 | 5.67 | 6.87 | 5.76
Nc1ncc(-c2ccc(OCCCN3CCOCC3)cc2)cc1C(=O)NC1CCCCC1 [Example 52, 2-amino-N-cyclohexyl-5-(4-(3-morpholinopropoxy)phenyl)nicotinamide] | 5.55 | 6.47 | 7.17 | 7.51 | 5.07 | 6.01 | 4.69
Nc1ncc(-c2ccc(N3CCNCC3)cc2F)cc1C(=O)N[C@H]1CC[C@H](O)CC1 [Example 29, 2-amino-5-(2-fluoro-4-(piperazin-1-yl)phenyl)-N-((1r,4r)-4-hydroxycyclohexyl)nicotinamide] | 5.60 | 6.16 | 7.66 | 7.70 | 5.40 | 6.55 | 5.40
CC#CCN1C[C@H]2C[C@@]2(c2ccc(-c3cnc(N)c(C(=O)N[C@H]4CC[C@H](O)CC4)c3)cc2)C1 [Example 60, 2-amino-5-(4-((1R,5S)-3-(but-2-yn-1-yl)-3-azabicyclo[3.1.0]hexan-1-yl)phenyl)-N-((1r,4R)-4-hydroxycyclohexyl)nicotinamide] | 6.00 | 7.08 | 7.96 | 7.38 | 5.20 | 6.77 | 5.20
Nc1ncc(-c2ccc([C@]34C[C@H]3CN(C3COC3)C4)cc2)cc1C(=O)N[C@H]1CC[C@H](O)CC1 [Example 26, 2-amino-N-((1r,4S)-4-hydroxycyclohexyl)-5-(4-((1S,5R)-3-(oxetan-3-yl)-3-azabicyclo[3.1.0]hexan-1-yl)phenyl)nicotinamide] | 5.77 | 6.96 | 7.74 | 7.74 | 5.37 | 6.64 | 5.60
Nc1ncc(-c2ccc([C@]34C[C@H]3CN(CCCN3CCOCC3)C4)cc2)cc1C(=O)N[C@H]1CC[C@H](O)CC1 [Example 5, 2-amino-N-((1r,4S)-4-hydroxycyclohexyl)-5-(4-((1S,5R)-3-(3-morpholinopropyl)-3-azabicyclo[3.1.0]hexan-1-yl)phenyl)nicotinamide] | 5.96 | 6.92 | 8.15 | 8.00 | 5.66 | 7.09 | 5.60
CN1CCN(C(=O)c2ccc(-c3cnc(N)c(C(=O)N[C@H]4CC[C@@H](O)CC4)c3)cc2)CC1 [Example 79, 2-amino-N-((1s,4s)-4-hydroxycyclohexyl)-5-(4-(4-methylpiperazine-1-carbonyl)phenyl)nicotinamide] | 5.19 | 5.57 | 7.07 | 7.06 | 5.39 | 6.05 | 5.00
CC(F)(F)CN1C[C@H]2C[C@@]2(c2ccc(-c3cnc(N)c(C(=O)N[C@H]4CC[C@H](O)CC4)c3)cc2)C1 [Example 50, 2-amino-5-(4-((1R,5S)-3-(2,2-difluoropropyl)-3-azabicyclo[3.1.0]hexan-1-yl)phenyl)-N-((1r,4R)-4-hydroxycyclohexyl)nicotinamide] | 5.62 | 6.08 | 7.96 | 7.43 | 5.19 | 6.30 | 5.29
COCCN1C[C@@H]2C[C@]2(c2ccc(-c3cnc(N)c(C(=O)NC45CCC(O)(CC4)CC5)c3)cc2)C1 [Example 7, 2-amino-N-(4-hydroxybicyclo[2.2.2]octan-1-yl)-5-(4-((1S,5R)-3-(2-methoxyethyl)-3-azabicyclo[3.1.0]hexan-1-yl)phenyl)nicotinamide] | 6.06 | 7.29 | 7.92 | 7.92 | 5.26 | 6.71 | 5.62
Nc1ncc(-c2ccc([C@]34C[C@H]3CN(CCF)C4)cc2)cc1C(=O)N[C@H]1CC[C@H](O)CC1 [Example 11, 2-amino-5-(4-((1S,5R)-3-(2-fluoroethyl)-3-azabicyclo[3.1.0]hexan-1-yl)phenyl)-N-((1r,4S)-4-hydroxycyclohexyl)nicotinamide] | 5.96 | 7.29 | 8.05 | 7.92 | 5.62 | 6.82 | 5.41
CC(C)N1C[C@@H]2C[C@]2(c2ccc(-c3cnc(N)c(C(=O)NC45CC(CO)(C4)C5)c3)cc2)C1 [Example 16, 2-amino-N-(3-(hydroxymethyl)bicyclo[1.1.1]pentan-1-yl)-5-(4-((1S,5R)-3-isopropyl-3-azabicyclo[3.1.0]hexan-1-yl)phenyl)nicotinamide] | 5.85 | 7.10 | 7.92 | 7.82 | 5.00 | 6.62 | 5.30
CC(C)(O)C12CC(NC(=O)c3cc(-c4ccc([C@@]56C[C@@H]5CN(C5CCOCC5)C6)cc4)cnc3N)(C1)C2 [Example 83, 2-amino-N-(3-(2-hydroxypropan-2-yl)bicyclo[1.1.1]pentan-1-yl)-5-(4-((1R,5S)-3-(tetrahydro-2H-pyran-4-yl)-3-azabicyclo[3.1.0]hexan-1-yl)phenyl)nicotinamide] | 4.82 | 6.44 | 7.00 | 6.84 | 5.00 | 5.25 | 5.00
CC(C)N1C[C@H]2C[C@@]2(c2ccc(-c3cnc(N)c(C(=O)N[C@H]4CC[C@](C)(O)CC4)c3)cc2)C1 [Example 24, 2-amino-N-((1r,4R)-4-hydroxy-4-methylcyclohexyl)-5-(4-((1R,5S)-3-isopropyl-3-azabicyclo[3.1.0]hexan-1-yl)phenyl)nicotinamide] | 5.19 | 7.09 | 7.96 | 7.80 | 5.17 | 6.27 | 5.14
CC(C)N1C[C@@H]2C[C@]2(c2ccc(-c3cnc(N)c(C(=O)N[C@H]4CC[C@@H](O)CC4)c3)cc2)C1 [Example 71, 2-amino-N-((1s,4R)-4-hydroxycyclohexyl)-5-(4-((1S,5R)-3-isopropyl-3-azabicyclo[3.1.0]hexan-1-yl)phenyl)nicotinamide] | 5.54 | 7.07 | 7.66 | 7.19 | 5.52 | 6.31 | 5.24
Nc1ncc(-c2ccc([C@@]34C[C@@H]3CN(CCF)C4)cc2)cc1C(=O)N[C@H]1CC[C@H](O)CC1 [Example 48, 2-amino-5-(4-((1R,5S)-3-(2-fluoroethyl)-3-azabicyclo[3.1.0]hexan-1-yl)phenyl)-N-((1r,4R)-4-hydroxycyclohexyl)nicotinamide] | 6.01 | 6.44 | 8.10 | 7.47 | 5.28 | 6.92 | 5.36
